Laboratory results reported in ChEMBL document CHEMBL2034966, “Bidirectional fluorescence properties of pyrene-based peroxisome proliferator-activated receptor (PPAR) α/δ dual agonist” (Bioorg Med Chem, 2012).
Substitutions are numbered along the chain they refer to. The source made the active and inactive calls. The calls are words filed in the database; no cut-off is given here.

Tests used:
[1] = target: T1, Peroxisome proliferator-activated receptor delta (Homo sapiens) (UniProt Q03181); assay: Binding affinity to N-terminal His-tagged human PPARdelta ligand binding domain assessed as decrease in fluorescence at 500 nM by fluorometry
T1 sequence (whole entry): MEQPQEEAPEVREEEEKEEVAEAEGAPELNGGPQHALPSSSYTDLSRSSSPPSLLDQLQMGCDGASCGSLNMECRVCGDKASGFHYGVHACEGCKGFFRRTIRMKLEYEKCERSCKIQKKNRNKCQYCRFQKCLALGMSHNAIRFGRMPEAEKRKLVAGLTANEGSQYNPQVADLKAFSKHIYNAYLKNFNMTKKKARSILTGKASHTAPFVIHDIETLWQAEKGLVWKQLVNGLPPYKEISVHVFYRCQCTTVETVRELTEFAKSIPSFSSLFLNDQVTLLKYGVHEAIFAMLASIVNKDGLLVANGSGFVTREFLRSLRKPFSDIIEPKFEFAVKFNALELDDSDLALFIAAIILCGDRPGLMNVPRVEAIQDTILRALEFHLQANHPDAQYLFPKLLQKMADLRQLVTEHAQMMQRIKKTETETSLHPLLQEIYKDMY

Homo sapiens [2] = organism: Homo sapiens; assay: Binding affinity to N-terminal His-tagged human PPARdelta W264L mutant ligand binding domain assessed as increase in fluorescence at 500 nM by fluorometry
[3] = system: T2, Peroxisome proliferator-activated receptor alpha (Homo sapiens), Q07869 [L258W]; assay: Binding affinity to N-terminal His-tagged human PPARalpha L258W mutant ligand binding domain assessed as increase in fluorescence at 500 nM by fluorometry
T2 sequence (whole entry): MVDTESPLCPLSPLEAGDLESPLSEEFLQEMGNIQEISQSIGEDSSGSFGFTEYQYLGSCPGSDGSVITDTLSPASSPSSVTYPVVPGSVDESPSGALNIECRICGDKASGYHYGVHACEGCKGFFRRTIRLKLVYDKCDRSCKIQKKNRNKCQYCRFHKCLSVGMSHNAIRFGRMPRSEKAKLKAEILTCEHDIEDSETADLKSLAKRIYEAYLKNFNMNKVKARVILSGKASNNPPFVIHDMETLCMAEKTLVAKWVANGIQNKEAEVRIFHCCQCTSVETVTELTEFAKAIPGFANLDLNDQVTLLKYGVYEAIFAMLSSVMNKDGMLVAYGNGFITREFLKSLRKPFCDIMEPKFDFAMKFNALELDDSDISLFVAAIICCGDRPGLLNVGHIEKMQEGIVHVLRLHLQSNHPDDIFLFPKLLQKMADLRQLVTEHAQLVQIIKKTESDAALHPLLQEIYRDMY

Homo sapiens [4] = organism: Homo sapiens; assay: Binding affinity to N-terminal His-tagged human PPARdelta W264A mutant ligand binding domain assessed as increase in fluorescence at 500 nM by fluorometry
Homo sapiens [5] = organism: Homo sapiens; assay: Binding affinity to N-terminal His-tagged human PPARdelta W225A mutant ligand binding domain assessed as decrease in fluorescence at 500 nM by fluorometry
[6] = target: T3, Peroxisome proliferator-activated receptor alpha (Homo sapiens) (UniProt Q07869); assay: Binding affinity to N-terminal His-tagged human PPARalpha ligand binding domain assessed as increase in fluorescence at 500 nM by fluorometry
T3 sequence (whole entry): T2 sequence (whole entry) with W258L

Homo sapiens [7] = organism: Homo sapiens; assay: Binding affinity to N-terminal His-tagged human PPARdelta W256A mutant ligand binding domain assessed as increase in fluorescence at 500 nM by fluorometry

Activity [1]: Active
Activity (Homo sapiens [2]): Active
Activity [3]: inactive
Activity (Homo sapiens [4]): Active
Activity (Homo sapiens [5]): Active
Activity [6]: Active
Activity (Homo sapiens [7]): inactive
SMILES: CC[C@@H](Cc1ccc(OC)c(CNC(=O)c2ccc3ccc4cccc5ccc2c3c45)c1)C(=O)O
